Patent US20240228504A1, “SUBSTITUTED TRICYCLIC AMIDES, ANALOGUES THEREOF, AND METHODS USING SAME” (Arbutus Biopharma Corporation, priority 2020, published 2024)

Tested on: HBV rcDNA in HepDE19 cells
Test: HepDE19 assay with bDNA quantitation of HBV rcDNA
Format: cell-based, hepatitis B virus
Conditions: HepDE19 assay, inhibition of rcDNA formation, bDNA quantitation; read-out: DE-19bDNA EC50

First: CN(C(=O)c1cc2cc(F)ccn2c1)C1CNCc2[nH]c(=O)c3cc(F)c(F)cc3c21 (single isomer, unassigned) [Compound 162, N-(8,9-Difluoro-6-oxo-1,2,3,4,5,6-hexahydrobenzo[c][1,7]naphthyridin-1-yl)-7-fluoro-N-methylindolizine-2-carboxamide]
Second: CN(C(=O)c1cc(F)c(Br)c(F)c1)C1CNCc2[nH]c(=O)c3cc(F)c(F)cc3c21 (single isomer, unassigned) [Compound 164, 4-Bromo-N-(8,9-difluoro-6-oxo-1,2,3,4,5,6-hexahydrobenzo[c][1,7]naphthyridin-1-yl)-3,5-difluoro-N-methylbenzamide]
The EC50 of the first is 4.8-fold higher: 13800 nM for the first, 2880 nM for the second.

First: CN(C(=O)c1cc2cc(F)ccn2c1)C1CNCc2[nH]c(=O)c3cc(F)c(F)cc3c21 (single isomer, unassigned) [Compound 163, N-(8,9-Difluoro-6-oxo-1,2,3,4,5,6-hexahydrobenzo[c][1,7]naphthyridin-1-yl)-7-fluoro-N-methylindolizine-2-carboxamide]
Second: CN(C(=O)c1cc(F)c(Br)c(F)c1)C1CNCc2[nH]c(=O)c3cc(F)c(F)cc3c21 (single isomer, unassigned) [Compound 165, 4-Bromo-N-(8,9-difluoro-6-oxo-1,2,3,4,5,6-hexahydrobenzo[c][1,7]naphthyridin-1-yl)-3,5-difluoro-N-methylbenzamide]
The EC50 of the first is 1.5-fold higher: 30 nM for the first, 20 nM for the second. The second is the more potent here.

Going from CN(C(=O)c1cc(F)c(Br)c(F)c1)C1COCc2[nH]c(=O)c3cc(F)ccc3c21 (single isomer, unassigned) [Compound 166, 4-Bromo-3,5-difluoro-N-(8-fluoro-6-oxo-2,4,5,6-tetrahydro-1H-pyrano[3,4-c]isoquinolin-1-yl)-N-methylbenzamide] to CN(C(=O)c1cc(F)c(Cl)c(F)c1)C1COCc2[nH]c(=O)c3cc(F)ccc3c21 (single isomer, unassigned) [Compound 174, 4-Chloro-3,5-difluoro-N-(8-fluoro-6-oxo-2,4,5,6-tetrahydro-1H-pyrano[3,4-c]isoquinolin-1-yl)-N-methylbenzamide], the EC50 rises from 1910 nM to 5100 nM (2.7-fold). The first is the more potent here.

First: CN(C(=O)c1cc(F)c(Br)c(F)c1)C1COCc2[nH]c(=O)c3cc(F)ccc3c21 (single isomer, unassigned) [Compound 167, 4-Bromo-3,5-difluoro-N-(8-fluoro-6-oxo-2,4,5,6-tetrahydro-1H-pyrano[3,4-c]isoquinolin-1-yl)-N-methylbenzamide]
Second: CN(C(=O)c1cc(F)c(Cl)c(F)c1)C1COCc2[nH]c(=O)c3cc(F)ccc3c21 (single isomer, unassigned) [Compound 175, 4-Chloro-3,5-difluoro-N-(8-fluoro-6-oxo-2,4,5,6-tetrahydro-1H-pyrano[3,4-c]isoquinolin-1-yl)-N-methylbenzamide]
The EC50 of the first is 3-fold lower: 10 nM for the first, 30 nM for the second. The first is the more potent here.

Going from CN(C(=O)c1cc(F)c(Cl)c(F)c1)C1CNCc2[nH]c(=O)c3cc(F)c(F)cc3c21 (single isomer, unassigned) [Compound 168, 4-Chloro-N-(8,9-difluoro-6-oxo-1,2,3,4,5,6-hexahydrobenzo[c][1,7]naphthyridin-1-yl)-3,5-difluoro-N-methylbenzamide] to CN(C(=O)c1cc(F)c(C(F)F)c(F)c1)C1CNCc2[nH]c(=O)c3cc(F)c(F)cc3c21 (single isomer, unassigned) [Compound 184, N-(8,9-Difluoro-6-oxo-1,2,3,4,5,6-hexahydrobenzo[c][1,7]naphthyridin-1-yl)-4-(difluoromethyl)-3,5-difluoro-N-methylbenzamide], the EC50 falls from 11300 nM to 70 nM (160-fold). The second is the more potent here.

Going from CN(C(=O)c1cc(F)c(Cl)c(F)c1)C1CNCc2[nH]c(=O)c3cc(F)c(F)cc3c21 (single isomer, unassigned) [Compound 169, 4-Chloro-N-(8,9-difluoro-6-oxo-1,2,3,4,5,6-hexahydrobenzo[c][1,7]naphthyridin-1-yl)-3,5-difluoro-N-methylbenzamide] to CN(C(=O)c1cc(F)c(Br)c(F)c1)C1CNCc2[nH]c(=O)c3cc(F)ccc3c21 (single isomer, unassigned) [Compound 170, 4-Bromo-3,5-difluoro-N-(8-fluoro-6-oxo-1,2,3,4,5,6-hexahydrobenzo[c][1,7]naphthyridin-1-yl)-N-methylbenzamide], the EC50 rises from 40 nM to 22000 nM (550-fold).

First: CN(C(=O)c1cc(F)c(Br)c(F)c1)C1CNCc2[nH]c(=O)c3cc(F)ccc3c21 (single isomer, unassigned) [Compound 171, 4-Bromo-3,5-difluoro-N-(8-fluoro-6-oxo-1,2,3,4,5,6-hexahydrobenzo[c][1,7]naphthyridin-1-yl)-N-methylbenzamide]
Second: CN(C(=O)c1cc(F)c(C(F)F)c(F)c1)C1CNCc2[nH]c(=O)c3cc(F)ccc3c21 (single isomer, unassigned) [Compound 185, 4-(Difluoromethyl)-3,5-difluoro-N-(8-fluoro-6-oxo-1,2,3,4,5,6-hexahydrobenzo[c][1,7]naphthyridin-1-yl)-N-methylbenzamide]
The EC50 of the first is 47-fold lower: 510 nM for the first, 24000 nM for the second.

Going from CN(C(=O)c1cc(F)c(C(F)F)c(F)c1)C1COCc2[nH]c(=O)c3cc(F)ccc3c21 (single isomer, unassigned) [Compound 178, 4-(Difluoromethyl)-3,5-difluoro-N-(8-fluoro-6-oxo-1,4,5,6-tetrahydro-2H-pyrano[3,4-c]isoquinolin-1-yl)-N-methylbenzamide] to CN(C(=O)c1cc(F)c(C(F)F)c(F)c1)C1CNCc2[nH]c(=O)c3cc(F)ccc3c21 (single isomer, unassigned) [Compound 186, 4-(Difluoromethyl)-3,5-difluoro-N-(8-fluoro-6-oxo-1,2,3,4,5,6-hexahydrobenzo[c][1,7]naphthyridin-1-yl)-N-methylbenzamide], the EC50 falls from 7400 nM to 200 nM (37-fold). The second is the more potent here.

Going from CN(C(=O)c1cc(F)c(C(F)F)c(F)c1)C1COCc2[nH]c(=O)c3cc(F)ccc3c21 (single isomer, unassigned) [Compound 179, 4-(Difluoromethyl)-3,5-difluoro-N-(8-fluoro-6-oxo-1,4,5,6-tetrahydro-2H-pyrano[3,4-c]isoquinolin-1-yl)-N-methylbenzamide] to CN(C(=O)c1cc2cc(F)c(C(F)F)cc2[nH]1)C1COCc2[nH]c(=O)c3cc(F)ccc3c21 (single isomer, unassigned) [Compound 217, 6-(Difluoromethyl)-5-fluoro-N-(8-fluoro-6-oxo-1,4,5,6-tetrahydro-2H-pyrano[3,4-c]isoquinolin-1-yl)-N-methyl-1H-indole-2-carboxamide], the EC50 rises from 50 nM to 880 nM (18-fold). The first is the more potent here.

CN(C(=O)c1cc2c(C(F)F)cccc2[nH]1)C1COCc2[nH]c(=O)c3cc(F)ccc3c21 (single isomer, unassigned) [Compound 181, 4-(Difluoromethyl)-N-(8-fluoro-6-oxo-1,4,5,6-tetrahydro-2H-pyrano[3,4-c]isoquinolin-1-yl)-N-methyl-1H-indole-2-carboxamide] and CN(C(=O)c1cc2c(C(F)F)cccc2[nH]1)C1CNCc2[nH]c(=O)c3cc(F)ccc3c21 (single isomer, unassigned) [Compound 209, N-(8-Fluoro-6-oxo-1,2,3,4,5,6-hexahydrobenzo[c][1,7]naphthyridin-1-yl)-4-(difluoromethyl)-N-methyl-1H-indole-2-carboxamide] are within 1.5-fold of each other in EC50: 5500 nM for the first, 4400 nM for the second.

First: CN(C(=O)c1cc2c(C(F)F)cccc2[nH]1)C1COCc2[nH]c(=O)c3cc(F)ccc3c21 (single isomer, unassigned) [Compound 182, 4-(Difluoromethyl)-N-(8-fluoro-6-oxo-1,4,5,6-tetrahydro-2H-pyrano[3,4-c]isoquinolin-1-yl)-N-methyl-1H-indole-2-carboxamide]
Second: CN(C(=O)c1cc2c(C(F)F)cccc2[nH]1)C1CNCc2[nH]c(=O)c3cc(F)ccc3c21 (single isomer, unassigned) [Compound 210, N-(8-Fluoro-6-oxo-1,2,3,4,5,6-hexahydrobenzo[c][1,7]naphthyridin-1-yl)-4-(difluoromethyl)-N-methyl-1H-indole-2-carboxamide]
The EC50 of the first is 19-fold higher: 750 nM for the first, 40 nM for the second.

First: CN(C(=O)c1cc2c(C(F)F)cccc2[nH]1)C1CNCc2[nH]c(=O)c3cc(F)c(F)cc3c21 (single isomer, unassigned) [Compound 207, N-(8,9-Difluoro-6-oxo-1,2,3,4,5,6-hexahydrobenzo[c][1,7]naphthyridin-1-yl)-4-(difluoromethyl)-N-methyl-1H-indole-2-carboxamide]
Second: CN(C(=O)c1cc2cc(F)c(C(F)F)cc2[nH]1)C1CNCc2[nH]c(=O)c3cc(F)c(F)cc3c21 (single isomer, unassigned) [Compound 220, N-(8,9-Difluoro-6-oxo-1,2,3,4,5,6-hexahydrobenzo[c][1,7]naphthyridin-1-yl)-6-(difluoromethyl)-5-fluoro-N-methyl-1H-indole-2-carboxamide]
The EC50 of the first is 2.3-fold higher: 5600 nM for the first, 2450 nM for the second.

CN(C(=O)c1cc2c(C(F)F)cccc2[nH]1)C1CNCc2[nH]c(=O)c3cc(F)c(F)cc3c21 (single isomer, unassigned) [Compound 208, N-(8,9-Difluoro-6-oxo-1,2,3,4,5,6-hexahydrobenzo[c][1,7]naphthyridin-1-yl)-4-(difluoromethyl)-N-methyl-1H-indole-2-carboxamide] and CN(C(=O)c1cc2cc(F)c(C(F)F)cc2[nH]1)C1COCc2[nH]c(=O)c3cc(F)ccc3c21 (single isomer, unassigned) [Compound 218, 6-(Difluoromethyl)-5-fluoro-N-(8-fluoro-6-oxo-1,4,5,6-tetrahydro-2H-pyrano[3,4-c]isoquinolin-1-yl)-N-methyl-1H-indole-2-carboxamide] are the same in EC50: 30 nM for the first, 30 nM for the second.

Same assay, conditions: Hepatitis B virus, HepDE19, HepDE19 assay, inhibition of rcDNA formation, bDNA quantitation; read-out: DE-19bDNA EC50

CN(C(=O)c1cc(F)c(Cl)c(F)c1)C1CNCc2[nH]c(=O)c3cc(F)ccc3c21 (single isomer, unassigned) [Compound 176, 4-Chloro-3,5-difluoro-N-(8-fluoro-6-oxo-1,2,3,4,5,6-hexahydrobenzo[c][1,7]naphthyridin-1-yl)-N-methylbenzamide] and CN(C(=O)C(N)c1cccc(Cl)c1)[C@@H]1COCc2[nH]c(=O)c3cc(F)c(F)cc3c21 (single isomer, unassigned) [Compound 202] are within 1.5-fold of each other in EC50: 19600 nM for the first, 16000 nM for the second.

With CN(C(=O)C(N)c1ccc(Cl)cc1)[C@@H]1COCc2[nH]c(=O)c3cc(F)c(F)cc3c21 (single isomer, unassigned) [Compound 199] the EC50 was 14700 nM.
